One compound from US11453640B2, “Small molecules for disrupting the super elongation complex and inhibiting transcription elongation for cancer therapy” (NORTHWESTERN UNIVERSITY, priority 2018, dated 2022) can be followed below.

One data set concerns Pol II. Kind of data set: 4sU-FP-seq measurement of Pol II transcription elongation rate in HEK293T cells. Format: cell-based, human. The following applies: 20 μM pretreatment 5 hr, HMM analysis, 982 genes. As for the experimental part: FIG. 4. Small molecule disruption of SEC slows Pol II elongation rates. (A) Workflow of 4sU-FP-seq based measurement of the transcription elongation rate of RNA Pol II. HEK293T cells were pretreated with vehicle or 20 μM SEC inhibitors for 5 hr before addition of the CDK9 inhibitor flavopiridol for 1 hr to arrest Pol II at the promoter-proximal pause site. Inhibitors are washed out with PBS before allowing transcription to proceed in the presence of with fresh medium containing 500 μM 4-Thiouridine (4sU) for 15 min. The 4sU-labeled RNA is then extracted and fragmented before purification, and followed with RNA-seq. (B) Genome browser tracks of 4sU-FP-seq for vehicle and SEC inhibitor-treated cells at the ACTN2 and MTR loci. […] (C) Heatmap analysis of 4sU-FP-seq in vehicle and the indicated SEC inhibitors in HEK293T cells. All genes longer than 50 kb (N=5,568) were plotted and ordered using the total 4sU-FP-seq signals in the vehicle-treated cells. (D) Metaplot of strand-specific 4sU-FP-seq signals in vehicle and SEC inhibitors-treated cells. […] Raw changes in 4sU-FP-seq read counts in non-overlapping 50 bp windows used to infer elongation rates for the MTR gene. […] (F-G) Histograms (F) and boxplots (G) comparing the transcription elongation rates for 982 genes in HEK293T cells for which high confidence elongation rates could be determined. […]

In another data set the test system is H2171 and SW1271 cells. Kind of data set: CellTiter-Glo cell proliferation of small cell lung cancer cells. The class given is cell-based, human. The following applies: 3 days, increasing concentrations. From the text:
FIG. 6. SEC disruption targets MYC and MYC target genes. (A-B) Venn diagram of deregulated genes in 293T cells by KL-1 and KL-2. […] (C) Heat map showing the expression changes in response to SEC inhibitors, with differentially expressed canonical MYC targets, RNA splicing factors, and core SNRP assembly genes highlighted. […] Each cluster is represented by different colors and a circle node denotes each enriched term. (E) MA plots of RNA splicing and Hallmark MYC target genes in KL-2 treated, AFF1 and AFF4 co-depletion, and ELL2-depleted cells. […] The MYC genes, the PRMT5 gene, and genes encoding SEC components are denoted as red squares. (F) Western analysis of MYC protein levels in the MYC lowly expressed small cell lung cancer cell line […] and MYC-amplified small cell lung cancer cell line H2171. (G) Gained SEC occupancy at the MYC binding sites in MYC highly expressed H2171 cells. Genome browser tracks of MYC and SEC occupancy around the PRMT5 gene in SW1271 and H2171 cells are shown. (H) ChIP-seq analysis of MYC binding peaks in SW1271 and H2171 cells. […] The SEC and MYC peaks were determined by MACS with a p-value cutoff at 1E-5. […] Both cell lines were treated with increasing concentrations of KL-1 and KL-2 for 3 days and the cell proliferation was measured with CellTiter-Glo luminescent cell viability assay (Promega) (n=3-6).

A short description of data set [1]: Toxicity test in mice (body weight, sickness). The class given is in vivo. The following applies: 5 doses of 50 mg/kg, monitored 35 days. As for the experimental part: FIG. 14, related to FIG. 7. SEC disruptors delay tumor progression and improve survival of MDA231-LM2 tumor mice. (A) KL-1 and KL-2 inhibit the colony formation of MDA231-LM2 cells in vitro. 5×10^3 MDA231-LM2 cells were seeded in 6-well plates and treated with KL-1 or KL-2 at the indicated doses for 5 days. Crystal violet staining was performed to stain the colonies. (B) KL-1 and KL-2 induce apoptosis in MDA231-LM2 cells. Bar graph depiction of Annexin V positive MDA231-LM2 cells after 24 hr of KL-1 and KL-2 treatments at the indicated concentrations. Data are represented as Mean+/−SD. […] Each individual line indicates the weights of each mouse during toxicity test.

Consider `COc1cccc(C(=O)CC(=O)C(=O)Nc2cc(Cl)ccc2C)c1` [KL-1, N-(5-chloro-2-methylphenyl)-4-oxo-4-(3-methoxyphenyl)-2-oxobutanamide], for which the “elongation rate of Pol II” value in the data set on Pol II is listed as “decreased the elongation rate of Pol II”. Also, the “sensitivity of high MYC expressing H2171 cells versus low MYC expressing SW1271 cells” value in the data set on H2171 and SW1271 cells is on record as “more sensitive”. The “weight loss in mice” value in data set [1] (intraperitoneal) is given as “does not result in significant weight loss”. Further, in data set [1], the “sign of sickness in mice” value is “no obvious sign of sickness was observed”.
